# Results published in patent US20120214875A1, “PHENOX[…]” (priority 2011, published 2012).
# Where “and” joins values, the source holds several entries; their conditions need not be identical. Equal values may be shown once.
# Legend:
# [1] = Stability of phenoxybenzamine in various solvents; assay type: physicochemical
# Procedure: Various solvents were examined for their abilities to stabilize phenoxybenzamine. The solvents examined were alcohol, acetonitrile (ACN), methanol (MeOH), acidified solvents (e.g., acidified MeOH and acidified ACN). Phenoxybenzamine in these solvents was not stable for 24 hr at 4° C. The stability of phenoxybenzamine was examined in acidified ACN with 0.5%, 1% and 2% formic acid (“FA”). Phenoxybenzamine was stable for ˜3 hr at RT and 4° C. The measured amount of phenoxybenzamine for neat standard in 0.5% FA in ACN was higher than those using 1% FA in ACN, and 2% FA in ACN.
# The stability of phenoxybenzamine was examined in acidified MeOH (80% MeOH containing 0.1% TFA). Phenoxybenzamine was stable for at least 48 hours at 4° C., −25° C. and −70° C.
# (§1) The stability of phenoxybenzamine in acidified plasma samples containing 1% FA, 1% H3PO4, 2% H3PO4 or 0.1N HCl was tested.
# [2] = Autosampler re-injection reproducibility of extracted QC samples; assay type: physicochemical; conditions: for Amount Found: single replicates; for % Difference: 7° C. ± 4° C.
# Procedure: (§2) Phenoxybenzamine and the internal standard phenoxybenzamine-d5 were extracted from 0.2 mL of human plasma, using EDTA (potassium K2 salt) as the anticoagulant and containing 1.3% of H3PO4 as stabilizer, by solid phase extraction into 0.8 mL of 0.1% TFA in 80% methanol, followed by dilution with 0.4 mL of 0.1% TFA. An aliquot of this extract was injected into a high performance liquid chromatography system and detected using an API 3000 tandem mass spectrometer with HSID interface and quantitated using peak area ratio method. Method sensitivity and selectivity were achieved by detecting distinct precursor to product ion mass transitions for phenoxybenzamine (304.1→120.0) and the internal standard phenoxybenzamine-d5 (309.1→120.0) at defined retention times under reverse chromatographic conditions.
# (§3) Blood plasma was separated from whole blood. The plasma samples should be protected from light and may be stored at −70° C. for use. The plasma samples were thawed in cold tap water and analyzed along with a set of standard samples. All samples were vortexed for about 20 seconds, centrifuged at 3000 rpm for 5 minutes at 4° C.±4° C., and placed in an ice-water bath. 200 uL of plasma was added to polypropylene tubes and kept in ice-water bath. 100 uL of internal standard working solution (40 ng/mL of phenoxybenzamine-d5) was added into all the tubes except those labeled with “BLANK.” 100 uL of 0.1 N HCl in 20% methanol was added to those labeled with BLANK and the tubes were vortexed for about 20 seconds. 400 uL of 1.7% phosphoric acid was added into all tubes. The tubes were vortexed for about 40 seconds and left in an ice-water bath. The Oasis™ HLB 1 cc (30 mg) cartridges (Waters) were washed first with 700 uL methanol and then with 700 uL water. The samples prepared above were then transferred into the cartridges which were then centrifuged at 1000 rpm for 2 minutes at 4° C.±4° C. Cartridges were then first washed with 700 uL water and then washed with 700 uL of 0.1% TFA in 40% methanol. Cartridges were then eluted twice with 400 μL of 0.1% TFA in 80% methanol, and all of the eluates were collected and diluted with 400 μL of 0.1% TFA. The extracted samples were then ready for analysis.
# The mean concentration of the aged re-injected samples was compared with the mean concentration of the initial zero hour samples prepared at the same concentration as the QC samples.
# [3] = Stability of phenoxybenzamine in whole blood; assay type: in vitro ADME, human; conditions: for WB Sample Amount Found, Mean: mean of six; for WB Sample Amount Found: single replicates
# Procedure: Stability of phenoxybenzamine in human whole blood was determined by spiking phenoxybenzamine into fresh human whole blood. This was followed by the preparation of the whole blood samples into two sets: one set was immediately processed into plasma and the other set was stored at 4° C.±4° C. for up to two hours and then processed into plasma. Samples were extracted in replicates of six with control blank and analyzed.
# [4] = Processed sample integrity; assay type: physicochemical; conditions: for Amount Found: single replicates; for % Difference: ~112 hours vs 0.0 hours, 4° C. ± 4° C.
# Procedure: as §2, §3
# The mean concentration at each time-point was compared with the mean concentration of the zero hour samples.
# [5] = Stability of phenoxybenzamine in neat solution; assay type: physicochemical
# Procedure: The stability of phenoxybenzamine in neat solutions was examined. The measured amount of phenoxybenzamine in neat solution dropped ˜90% in 24 hours at ambient temperature but ˜20% at 4° C.
# [6] = Stability of phenoxybenzamine in acidified plasma; assay type: in vitro ADME
# Procedure: as §1
# [7] = QC HIGH 19.232 ng/mL added, 0.0 hours
# [8] = QC HIGH 19.232 ng/mL added, ~75 hours at 7° C. ± 4° C.
# [9] = QC HIGH 19.232 ng/mL added, ~110 hours at 7° C. ± 4° C.
# [10] = QC LOW 0.601 ng/mL added, 0.0 hours
# [11] = QC LOW 0.601 ng/mL added, ~110 hours at 7° C. ± 4° C.
# [12] = human whole blood, ~2 hours at 4° C.±4° C.
# [13] = QC HIGH 19.232 ng/mL added, ~112 hours at 4° C. ± 4° C.
# [14] = QC LOW 0.601 ng/mL added, ~112 hours at 4° C. ± 4° C.
structure (smiles),measurement,setting,value
"CC(COc1ccccc1)N(CCCl)Cc1ccccc1 (racemic) [phenoxybenzamine, (RS)—N-benzyl-N-(2-chloroethyl)-1-phenoxy-propan-2-amine]",measured amount for neat standard in 0.5% FA in ACN compared with 1% FA and 2% FA in ACN,[1]; 0.5% FA in ACN vs 1% and 2% FA in ACN,higher
same,"drop, autosampler stability","[1]; 0.5% FA in ACN, ~24 hr",~70%
same,"autosampler re-injection stability, time stable",[1]; 80% MeOH containing 0.1% TFA,at least 24 hours
same,time stable in acidified MeOH,"[1]; 80% MeOH containing 0.1% TFA, 4° C., −25° C. and −70° C.",at least 48 hours
same,time stable in acidified ACN,"[1]; ACN with 0.5%, 1% and 2% formic acid, RT and 4° C.",~3 h
same,stability in solvents,"[1]; alcohol, acetonitrile, methanol, acidified MeOH and acidified ACN, 24 hr at 4° C.",not stable
same,"Amount Found, Mean",[2]; [7],18.178 ng/mL
same,Amount Found,[2]; [7],18.305 ng/mL and 18.069 ng/mL and 18.161 ng/mL
same,"Amount Found, Mean",[2]; [8],18.411 ng/mL
same,Amount Found,[2]; [8],18.066 ng/mL and 18.686 ng/mL and 18.482 ng/mL
same,"Amount Found, Mean",[2]; [9],18.423 ng/mL
same,Amount Found,[2]; [9],18.179 ng/mL and 18.435 ng/mL and 18.656 ng/mL
same,% Difference,"[2]; QC HIGH, ~75 hours vs 0.0 hours",1.3%
same,% Difference,"[2]; QC HIGH, ~110 hours vs 0.0 hours",1.3%
same,"Amount Found, Mean",[2]; [10],0.601 ng/mL
same,Amount Found,[2]; [10],0.590 ng/mL and 0.603 ng/mL and 0.610 ng/mL
same,"Amount Found, Mean","[2]; QC LOW 0.601 ng/mL added, ~75 hours at 7° C. ± 4° C.",0.615 ng/mL
same,Amount Found,"[2]; QC LOW 0.601 ng/mL added, ~75 hours in autosampler at 7° C. ± 4° C.",0.610 ng/mL and 0.646 ng/mL and 0.590 ng/mL
same,"Amount Found, Mean",[2]; [11],0.603 ng/mL
same,Amount Found,[2]; [11],0.602 ng/mL and 0.612 ng/mL and 0.595 ng/mL
same,% Difference,"[2]; QC LOW, ~75 hours vs 0.0 hours",2.4%
same,% Difference,"[2]; QC LOW, ~110 hours vs 0.0 hours",0.3%
same,time for which extracted samples can be re-injected,[2]; extracted samples stored in autosampler at 7° C.±4° C.,up to 110 hours
same,"WB Sample Amount Found, Mean","[3]; human whole blood, time 0.0 hours",3.357 ng/mL
same,WB Sample Amount Found,"[3]; human whole blood, time 0.0 hours, processed immediately into plasma",3.379 ng/mL and 3.325 ng/mL and 3.381 ng/mL and 3.387 ng/mL and 3.305 ng/mL and 3.365 ng/mL
same,"WB Sample Amount Found, Mean",[3]; [12],3.297 ng/mL
same,WB Sample Amount Found,[3]; [12],3.315 ng/mL and 3.330 ng/mL and 3.365 ng/mL and 3.328 ng/mL and 3.283 ng/mL and 3.160 ng/mL
same,% Difference,"[3]; human whole blood, ~2 hours vs 0.0 hours, 4° C.±4° C.",−1.8%
same,time stable in whole blood,[3]; stored at 4° C.±4° C.,up to 2 hours
same,time for which integrity of processed samples is not affected,"[4]; LOW and HIGH concentrations, 4° C.±4° C.",up to 112 hours
same,"Amount Found, Mean",[4]; [7],18.178 ng/mL
same,Amount Found,[4]; [7],18.305 ng/mL and 18.069 ng/mL and 18.161 ng/mL
same,"Amount Found, Mean",[4]; [13],18.214 ng/mL
same,Amount Found,[4]; [13],18.209 ng/mL and 18.214 ng/mL and 18.220 ng/mL
same,% Difference,[4]; QC HIGH,0.2%
same,"Amount Found, Mean",[4]; [10],0.601 ng/mL
same,Amount Found,[4]; [10],0.590 ng/mL and 0.603 ng/mL and 0.610 ng/mL
same,"Amount Found, Mean",[4]; [14],0.583 ng/mL
same,Amount Found,[4]; [14],0.574 ng/mL and 0.590 ng/mL and 0.586 ng/mL
same,% Difference,[4]; QC LOW,−2.9%
same,drop of measured amount in neat solution,[5]; 24 hours at 4° C.,~20%
same,drop of measured amount in neat solution,[5]; 24 hours at ambient temperature,~90%
same,stability in acidified plasma,[6]; plasma containing 0.1N HCl,stable
same,stability in acidified plasma,[6]; plasma containing 1% FA,stable except for 1% FA
same,stability in acidified plasma,[6]; plasma containing 1% H3PO4,stable
same,stability in acidified plasma,[6]; plasma containing 2% H3PO4,stable
